Reference: article PMC3413639 (PLoS ONE, 2012)

Target: T1, 5-HT1A receptors (Rattus norvegicus, UniProt P19327)
T1 sequence (P19327 1-422): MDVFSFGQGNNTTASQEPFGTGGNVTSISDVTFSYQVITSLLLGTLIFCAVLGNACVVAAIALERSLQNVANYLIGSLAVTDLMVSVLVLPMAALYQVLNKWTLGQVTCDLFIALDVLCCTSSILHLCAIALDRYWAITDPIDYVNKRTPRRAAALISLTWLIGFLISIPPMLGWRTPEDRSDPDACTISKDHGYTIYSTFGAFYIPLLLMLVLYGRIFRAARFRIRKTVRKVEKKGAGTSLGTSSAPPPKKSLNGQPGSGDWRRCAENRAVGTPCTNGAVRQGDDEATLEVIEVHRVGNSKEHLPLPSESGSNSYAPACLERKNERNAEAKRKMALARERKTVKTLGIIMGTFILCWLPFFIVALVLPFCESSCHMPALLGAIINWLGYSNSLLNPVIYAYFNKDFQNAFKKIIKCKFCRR
Test: In vitro ARG, inhibition of [11C]WAY-100635 binding in rat brain sections
Set-up: Twenty-micrometer-thick frozen brain sections were preincubated; from tissue; host or cells: rat brain (hippocampus and raphe nucleus): frozen sections or living animals
Conditions: for Ki: 0.9 nM [11C]WAY-100635
Procedure: Rats were sacrificed by decapitation. Twenty-micrometer-thick frozen brain sections were preincubated for 30 min in 50 mM Tris-HCl (pH 7.4) containing 1 mM MnCl2. […] Subsequently, the sections were rinsed twice with ice-cold Tris-HCl buffer for 5 min and then desalted with ice-cold distilled water for 10 sec. These samples were warmly blow-dried and placed in contact with an imaging plate (Fuji Film, Tokyo, Japan) for 60 min. Signals on the imaging plate were detected by BAS5000 system (Fuji Film).

Cc1nnc(-c2cc3c(OC[C@@H](O)CN4CCC(c5ccc(Cl)c(Cl)c5)CC4)cccc3o2)o1.Cl [Wf-516, (2S)-1-[4-(3,4-dichlorophenyl)piperidin-1-yl]-3-[2-(5-methyl-1,3,4-oxadiazol-2-yl)benzo[b]furan-4-yloxy]propan-2-ol monohydrochloride]
Blockage of 5-HT1A receptors by excess amounts of drug (hippocampus and raphe nucleus, up to 1000 nM): near-complete blockage | Ki (hippocampus): 8.1 nM | Ki (raphe nucleus): 7.9 nM
